IC50 data for two compounds are collected here from US20040044026A1, “3-Substituted quinuclidines and their use as nicotinic agonists” (priority 2000, published 2004).

In test [1] the target is α4β2-subtype of nicotinic receptors (Rattus norvegicus, UniProt P09483+P12390). As to the kind of experiment: in vitro inhibition of 3H-cytisine binding. An excerpt:
the in vitro inhibition ^3H-cytisine binding, which is a standard assay for determining selective binding to α4β2 subtype of nicotinic receptors, and/or
(§1) Such standard assays are described in e.g. WO 99/21834.
(§2) In this example the affinity of compounds of the invention for nicotinic acetylcholine receptors are investigated using standard assays described in WO 99/21834.
Next the in vitro inhibition ^3H-cytisine binding, which is a standard assay for determining selective binding to α4β2-subtype of nicotinic receptors, was determined.

Test [2] addresses α7-subtype of nicotinic receptors (Rattus norvegicus, UniProt Q05941). As to the kind of experiment: biochemical. It is filed as binding.
In test [3] the target is nicotinic receptors (non-selective). As to the kind of experiment: in vitro inhibition of 3H-epibatidin binding. As to conditions: radioligand 3H-epibatidin.
From the text: the in vitro inhibition of ^3H-epibatidin binding, which is a standard assay for determining non-selective binding to nicotinic receptors,
as §1, §2
First the in vitro inhibition of ^3H-epibatidin binding, which is a standard assay for determining non-selective binding to nicotinic receptors, was determined.

Where a name gives a salt, the structure may show the parent alone. Read-outs that look alike come from different tables or passages of the source.

Sequence of α7-subtype of nicotinic receptors (Q05941 23-502): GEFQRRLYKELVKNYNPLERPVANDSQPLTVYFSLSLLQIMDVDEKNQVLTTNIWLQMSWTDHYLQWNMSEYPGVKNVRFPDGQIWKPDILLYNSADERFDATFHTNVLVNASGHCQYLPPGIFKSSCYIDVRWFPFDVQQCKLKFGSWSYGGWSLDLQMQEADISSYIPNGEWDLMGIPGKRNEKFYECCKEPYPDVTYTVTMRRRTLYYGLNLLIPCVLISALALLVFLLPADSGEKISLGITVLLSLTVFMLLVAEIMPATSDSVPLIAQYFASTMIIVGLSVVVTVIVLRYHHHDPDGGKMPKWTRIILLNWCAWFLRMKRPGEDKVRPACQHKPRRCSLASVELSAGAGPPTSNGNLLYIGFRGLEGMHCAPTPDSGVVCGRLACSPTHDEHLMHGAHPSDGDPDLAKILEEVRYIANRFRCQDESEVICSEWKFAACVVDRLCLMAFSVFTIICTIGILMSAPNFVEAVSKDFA
Sequence of α4β2-subtype of nicotinic receptors (P09483 31-630): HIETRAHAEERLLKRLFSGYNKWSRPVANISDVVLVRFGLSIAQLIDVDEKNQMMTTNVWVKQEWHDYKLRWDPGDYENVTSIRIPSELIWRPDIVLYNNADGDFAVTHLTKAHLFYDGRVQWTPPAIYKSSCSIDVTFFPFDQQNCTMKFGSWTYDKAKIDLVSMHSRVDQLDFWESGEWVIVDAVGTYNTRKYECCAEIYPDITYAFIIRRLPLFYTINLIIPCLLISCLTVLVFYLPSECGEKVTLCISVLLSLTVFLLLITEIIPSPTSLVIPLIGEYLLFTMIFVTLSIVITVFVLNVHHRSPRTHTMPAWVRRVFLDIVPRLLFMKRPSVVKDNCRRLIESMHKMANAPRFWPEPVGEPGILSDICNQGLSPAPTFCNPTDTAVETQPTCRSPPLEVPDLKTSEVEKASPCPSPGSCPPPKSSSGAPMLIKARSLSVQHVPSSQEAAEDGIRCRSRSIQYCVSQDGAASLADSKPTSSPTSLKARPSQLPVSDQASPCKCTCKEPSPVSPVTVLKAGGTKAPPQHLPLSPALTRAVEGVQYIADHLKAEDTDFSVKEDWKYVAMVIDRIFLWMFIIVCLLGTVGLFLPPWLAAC
Sequence of α4β2-subtype of nicotinic receptors (P12390 25-500): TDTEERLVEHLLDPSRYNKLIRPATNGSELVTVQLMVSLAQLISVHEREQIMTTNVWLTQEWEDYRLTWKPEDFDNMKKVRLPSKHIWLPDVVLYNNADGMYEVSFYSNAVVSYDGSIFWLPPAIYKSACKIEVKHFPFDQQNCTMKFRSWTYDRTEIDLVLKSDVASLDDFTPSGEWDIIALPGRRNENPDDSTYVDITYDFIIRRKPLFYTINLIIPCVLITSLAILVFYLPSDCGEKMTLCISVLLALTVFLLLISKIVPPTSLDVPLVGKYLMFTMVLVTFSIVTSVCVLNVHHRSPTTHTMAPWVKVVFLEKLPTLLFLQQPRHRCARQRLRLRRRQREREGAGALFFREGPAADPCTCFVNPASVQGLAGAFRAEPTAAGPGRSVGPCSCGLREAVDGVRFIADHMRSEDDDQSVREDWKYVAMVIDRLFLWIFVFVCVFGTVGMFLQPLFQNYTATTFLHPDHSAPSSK

Broadly, the IC50 is the concentration needed to halve the response being measured. Regarding `c1ccc2cc(C3CN4CCC3CC4)ccc2c1` (racemic) [Compound C1, (±)-3-(2-Naphthyl)-quinuclidine fumaric acid salt], the IC50 worked out at 6 µM in test [1], 150 nM in test [2] and 7.5 µM in test [3].
Regarding `C1=C(c2ccc3ccccc3c2)C2CCN1CC2` [Compound B1, 3-(2-Naphthyl)-quinuclidine-3-ene fumaric acid salt], the IC50 in test [1] (radioligand 3H-cytisine, read-out: in vitro Inhibition of Binding (IC50) 3H-cytisine binding) amounted to 10 µM; in test [2], 58 nM; in test [3] it was 17 µM.
